Test results as given in patent US8247211B2, “Glycopeptide antibiotics” (American Cyanamid Company, priority 2001, dated 2012).
≈ marks a conversion by molar mass, not a printed value.

Legend:
Test in all cases: In vitro antibacterial evaluation: minimum inhibitory concentration (MIC), broth dilution method
Assay type in all cases: cell-based
Details in all cases: broth dilution, 18 hours at 35° C.
Streptococcus sp. = system: Streptococcus sp.
Method in brief: (§1)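 Values are minimum inhibitory concentrations, meaning the smallest antibiotic concentration that stops growth of the organism. They come from broth dilution in Muller-Hinton II […] per NCCLS guidance (M7-A2), using 5×10^5 CFU/mL and concentrations from 64 to 0.06 μg/mL.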

Enterococcus sp. = system: Enterococcus sp.
Method in brief: as §1

Staphylococcus sp. = system: Staphylococcus sp.
Method in brief: as §1

Escherichia coli = system: Escherichia coli

MIC Streptococcus agalactiae (GC 4564) (Streptococcus sp.; Streptococcus agalactiae (GC 4564)): 8 µg/mL (≈ 7.34 µM)
MIC Streptococcus pneumoniae (ATCC 6301) (Streptococcus sp.; Streptococcus pneumoniae (ATCC 6301)): 8 µg/mL (≈ 7.34 µM)
MIC Streptococcus pneumoniae (GC 1894) (Streptococcus sp.; Streptococcus pneumoniae (GC 1894)): 16 µg/mL (≈ 14.7 µM)
MIC Streptococcus pneumoniae (GC 4565) (Streptococcus sp.; Streptococcus pneumoniae (GC 4565)): 16 µg/mL (≈ 14.7 µM)
MIC Streptococcus pyogenes (GC 4563) (Streptococcus sp.; Streptococcus pyogenes (GC 4563)): 4 µg/mL (≈ 3.67 µM)
MIC Streptococcus agalactiae (GC 4564) (Streptococcus sp.): 8 µg/mL (≈ 7.34 µM)
MIC Streptococcus pneumoniae (ATCC 6301) (Streptococcus sp.): 8 µg/mL (≈ 7.34 µM)
MIC Streptococcus pneumoniae (GC 1894) (Streptococcus sp.): 16 µg/mL (≈ 14.7 µM)
MIC Streptococcus pneumoniae (GC 4565) (Streptococcus sp.): 16 µg/mL (≈ 14.7 µM)
MIC Streptococcus pyogenes (GC 4563) (Streptococcus sp.): 4 µg/mL (≈ 3.67 µM)
MIC Enterococcus avium (GC 4558) (Enterococcus sp.; Enterococcus avium (GC 4558)): 16 µg/mL (≈ 14.7 µM)
MIC Enterococcus faecalis (ATCC 29212) (Enterococcus sp.; Enterococcus faecalis (ATCC 29212)): 64 µg/mL (≈ 58.7 µM)
MIC Enterococcus faecalis (GC 2242) (Enterococcus sp.; Enterococcus faecalis (GC 2242)): 32 µg/mL (≈ 29.4 µM)
MIC Enterococcus faecalis (GC 2691) (Enterococcus sp.; Enterococcus faecalis (GC 2691)): 32 µg/mL (≈ 29.4 µM)
MIC Enterococcus faecalis (GC 3059) (Enterococcus sp.; Enterococcus faecalis (GC 3059)): 64 µg/mL (≈ 58.7 µM)
MIC Enterococcus faecalis (GC 4552) (Enterococcus sp.; Enterococcus faecalis (GC 4552)): 64 µg/mL (≈ 58.7 µM)
MIC Enterococcus faecalis (GC 4553) (Enterococcus sp.; Enterococcus faecalis (GC 4553)): 16 µg/mL (≈ 14.7 µM)
MIC Enterococcus faecalis (GC 4554) (Enterococcus sp.; Enterococcus faecalis (GC 4554)): 64 µg/mL (≈ 58.7 µM)
MIC Enterococcus faecalis (GC 6189) (Enterococcus sp.; Enterococcus faecalis (GC 6189)): 32 µg/mL (≈ 29.4 µM)
MIC Enterococcus faecium (GC 2243) (Enterococcus sp.; Enterococcus faecium (GC 2243)): 32 µg/mL (≈ 29.4 µM)
MIC Enterococcus faecium (GC 4556) (Enterococcus sp.; Enterococcus faecium (GC 4556)): 64 µg/mL (≈ 58.7 µM)
MIC Enterococcus faecium (GC 4557) (Enterococcus sp.; Enterococcus faecium (GC 4557)): 8 µg/mL (≈ 7.34 µM)
MIC Enterococcus avium (GC 4558) (Enterococcus sp.): 16 µg/mL (≈ 14.7 µM)
MIC Enterococcus faecalis (ATCC 29212) (Enterococcus sp.): 64 µg/mL (≈ 58.7 µM)
MIC Enterococcus faecalis (GC 2242) (Enterococcus sp.): 32 µg/mL (≈ 29.4 µM)
MIC Enterococcus faecalis (GC 2691) (Enterococcus sp.): 32 µg/mL (≈ 29.4 µM)
MIC Enterococcus faecalis (GC 3059) (Enterococcus sp.): 64 µg/mL (≈ 58.7 µM)
MIC Enterococcus faecalis (GC 4552) (Enterococcus sp.): 64 µg/mL (≈ 58.7 µM)
MIC Enterococcus faecalis (GC 4553) (Enterococcus sp.): 16 µg/mL (≈ 14.7 µM)
MIC Enterococcus faecalis (GC 4554) (Enterococcus sp.): 64 µg/mL (≈ 58.7 µM)
MIC Enterococcus faecalis (GC 6189) (Enterococcus sp.): 32 µg/mL (≈ 29.4 µM)
MIC Enterococcus faecium (GC 2243) (Enterococcus sp.): 32 µg/mL (≈ 29.4 µM)
MIC Enterococcus faecium (GC 4556) (Enterococcus sp.): 64 µg/mL (≈ 58.7 µM)
MIC Enterococcus faecium (GC 4557) (Enterococcus sp.): 8 µg/mL (≈ 7.34 µM)
MIC Staphylococcus aureus-SMITH (GC 4543) (Staphylococcus sp.; strain GC 4543): 8 µg/mL (≈ 7.34 µM)
MIC Coagulase Negative Staphylococcus (GC 4547) (Staphylococcus sp.; strain GC 4547): 8 µg/mL (≈ 7.34 µM)
MIC Coagulase Negative Staphylococcus (GC 4548) (Staphylococcus sp.; strain GC 4548): 4 µg/mL (≈ 3.67 µM)
MIC Coagulase Negative Staphylococcus (GC 4549) (Staphylococcus sp.; strain GC 4549): 16 µg/mL (≈ 14.7 µM)
MIC Coagulase Negative Staphylococcus (GC 4551) (Staphylococcus sp.; strain GC 4551): 8 µg/mL (≈ 7.34 µM)
MIC Coagulase Negative Staphylococcus (GC 6257) (Staphylococcus sp.; strain GC 6257): 4 µg/mL (≈ 3.67 µM)
MIC Staphylococcus aureus-SMITH (GC 4543) (Staphylococcus sp.; strain SMITH GC 4543): 8 µg/mL (≈ 7.34 µM)
MIC Escherichia coli (ATCC 25922) (Escherichia coli): 32 µg/mL (≈ 29.4 µM)
MIC Escherichia coli (GC 4559) (Escherichia coli): 32 µg/mL (≈ 29.4 µM)
MIC Escherichia coli (GC 4560) (Escherichia coli): 8 µg/mL (≈ 7.34 µM)
SMILES: CC(c1ccccc1)C1NC(=O)CNC(=O)C(CO)NC(=O)C(C(O)C2CNC(=N)N2C2OC(CO)C(O)C(O)C2O)NC(=O)C(C(O)C2CNC(=N)N2)NC(=O)C(Cc2ccc3oc(-c4cccc(F)c4)nc3c2)NC1=O (stereo not drawn) [Example 30, Cyclo[3-[2-(3-fluorophenyl)-1,3-benzoxazol-5-yl]alanyl-3-(2-iminoimidazolidin-4-yl)seryl-3-(3-hexopyranosyl-2-iminoimidazolidin-4-yl)serylserylglycyl-β-methylphenylalanyl]]
MIC Staphylococcus haemolyticus (GC 4546) (Staphylococcus sp.; strain GC 4546): 4 µg/mL (≈ 3.67 µM)
